The test system of assay [1] is hIL-6 mRNA. Description: Inhibition of hIL-6 mRNA transcription in LPS-stimulated U937 macrophages. As to conditions: Homo sapiens, U-937, PMA-differentiated U937 cells, 1 h pretreatment, LPS 3 h, read-out: IL-6 activity. In kind it is cell-based, Human. The method, then: Human leukemic monocyte lymphoma U937 cells (CRL-1593.2) were plated at a density of 3.2×10^4 cells per well in a 96-well plate in 100 μL RPMI-1640 containing 10% FBS and penicillin/streptomycin, and differentiated into macrophages for 3 days in 60 ng/mL PMA ([…]) at 37° C. in 5% CO2 prior to the addition of compound. The cells were pretreated for 1 h with increasing concentrations of test compound in 0.1% DMSO prior to stimulation with 1 ug/mL lipopolysaccharide from Escherichia coli. Triplicate wells were used for each concentration. The cells were incubated at 37° C., 5% CO2 for 3 h before the cells were harvested. At time of harvest, media was removed and cells were rinsed in 200 μL PBS. Cells were harvested using the mRNA Catcher PLUS kit according to manufacturer's instructions. The eluted mRNA was then used in a one-step quantitative real-time PCR reaction using components of the RNA UltraSense™ One-Step Kit (Life Technologies) together with Applied Biosystems TaqMan® primer-probes for hIL-6 and Cyclophilin. Real-time PCR plates were run on a ViiA™7 real time PCR machine (Applied Biosystems), data was analyzed, normalizing the Ct values for hlL-6 to an internal control, prior to determining the fold expression of each sample, relative to the control.

Assay [2] relates to Human AML MV-4-11 cells. The assay is described as follows: Inhibition of cell proliferation in MV4-11 cells (CellTiter Aqueous One). In kind it is cell-based. As to conditions: for IC50: MV4-11, 72 h. The method, then: MV4-11 cells (CRL-9591) were plated at a density of 5×10^4 cells per well in 96 well flat bottom plates and treated with increasing concentrations of test compound or DMSO (0.1%) in IMDM media containing 10% FBS and penicillin/streptomycin. Triplicate wells were used for each concentration and a well containing only media was used as a control. Plates were incubated at 37° C., 5% CO2 for 72 h before adding 20 µL of the CellTiter Aqueous One Solution (Promega) to each well and incubated at 37° C., 5% CO2 for an additional 3-4 h. The absorbance was read at 490 nm in a spectrophotometer and the percentage of cell titer relative to DMSO-treated cells was calculated after correcting for background by subtracting the blank well's signal. IC50 values were calculated using the GraphPad Prism software.

In assay [3] the target is Brd4 bromodomain 1 (BRD4(1)) (Homo sapiens, UniProt O60885). The assay is described as follows: Inhibition of tetra-acetylated histone H4 binding to Brd4 bromodomain 1, measured by FRET (HTRF). The arrangement: made in house; host or cells: E. coli BL21(DE3). The note with it: 2 h at room temperature. An outline of the steps:
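Inhibition was read as a drop in 665 nm relative to 620 nm HTRF signal after 2 h at room temperature, with IC50 from dose-response curves in duplicate wells. Reactions held 200 nM E. coli-expressed His-tagged bromodomain and 25-50 nM biotinylated tetra-acetylated histone H4 peptide. Buffer was 30 mM HEPES pH 7.4 with KF, CHAPS, BSA and 0.2% DMSO.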

Assay [4] deals with c-myc in Human AML MV4-11 cells. The assay is described as follows: Inhibition of cMYC expression (mRNA, real-time PCR) in MV4-11 cells. The note with it: 3 h treatment, cMYC mRNA by real-time PCR. It counts as cell-based. How it is done:
MV4-11 cells (CRL-9591) were plated at a density of 2.5×10^4 cells per well in 96 well U-bottom plates and treated with increasing concentrations of test compound or DMSO (0.1%) in IMDM media containing 10% FBS and penicillin/streptomycin, and incubated for 3 h at 37′C. Triplicate wells were used for each concentration. Cells were pelleted by centrifugation and harvested using the mRNA Catcher PLUS kit according to manufacturer's instructions. The eluted mRNA isolated was then used in a one-step quantitative real-time PCR reaction, using components of the RNA UltraSense™ One-Step Kit (Life Technologies) together with Applied Biosystems TaqMan® primer-probes for cMYC and Cyclophilin. Real-time PCR plates were run on a ViiA™7 real time PCR machine (Applied Biosystems), data was analyzed, normalizing the Ct values for cMYC to an internal control, prior to determining the fold expression of each sample, relative to the control.

The values that follow come from US9999616B2 (ZENITH EPIGENETICS LTD., priority 2013, dated 2018).

SMILES strings stand for the structures.

`Cc1noc(C)c1-c1cc(Nc2ccccc2)c2nncn2c1` [Example Compound 15, 6-(3,5-dimethylisoxazol-4-yl)-N-phenyl-[1,2,4] triazolo[4,3-a]pyridin-8-amine]: the IC50 is 3000 to 30000 nM in assay [1], not above 300 nM in assay [3] and 3000 to 30000 nM in assay [4]. Also, the “Cell Proliferation activity” value in assay [2] (72 h) is reported as “Not active”.

`Cc1noc(C)c1-c1cc(-c2ccnn2C)c2nc[nH]c2c1` [Example Compound 16, 3,5-dimethyl-4-(4-(1-methyl-1H-pyrazol-5-yl)-1H-benzo[d]imidazol-6-yl)isoxazole]: the IC50 in assay [1] was not above 300 nM; in assay [2], 300 to 3000 nM; in assay [3], not above 300 nM; in assay [4], 300 to 3000 nM.

Consider `Cc1nn(C)cc1-c1cc(-c2c(C)noc2C)cc2[nH]cnc12` [Example Compound 18, 4-(4-(1,3-dimethyl-1H-pyrazol-4-yl)-1H-benzo [d]imidazol-6-yl)-3,5-dimethyl isoxazole], for which the IC50 in assay [1] is not above 300 nM; in assay [2], 300 to 3000 nM; in assay [3], not above 300 nM; in assay [4] it was 300 to 3000 nM.

As to `Cc1noc(C)c1-c1cc(-c2cccc3c2cnn3C)c2nc[nH]c2c1` [Example Compound 23, 3,5-dimethyl-4-(4-(1-methyl-1H-indazol-4-yl)-1H-benzo[d]imidazol-6-yl)isoxazole], the IC50 is not above 300 nM in assay [1], 300 to 3000 nM in assay [2], not above 300 nM in assay [3] and 300 to 3000 nM in assay [4].

As to `Cc1noc(C)c1-c1cc(NCc2ccccc2)c2nncn2c1` [Example Compound 24, N-benzyl-6-(3,5-dimethylisoxazol-4-yl)-[1,2,4]triazolo[4,3-o]pyridin-8-amine], the IC50 in assay [1] was 300 to 3000 nM; in assay [2], 3000 to 30000 nM; in assay [3], not above 300 nM; in assay [4], 300 to 3000 nM.

With `COc1ccc(Nc2cc(-c3c(C)noc3C)cc3[nH]cnc23)cc1` [Example Compound 25, 6-(3,5-dimethylisoxazol-4-yl)-N-(4-methoxyphenyl)-1H-benzo[d]imidazol-4-amine], the IC50 in assay [1], in assay [2], in assay [3] and in assay [4] was 300 to 3000 nM in each case.

As for `Cc1ncsc1-c1cc(-c2c(C)noc2C)cc2[nH]cnc12` [Example Compound 26, 3,5-dimethyl-4-(4-(4-methylthiazol-5-yl)-1H-benzo[d]imidazol-6-yl)isoxazole], the IC50 was not above 300 nM in assay [1], 300 to 3000 nM in assay [2], not above 300 nM in assay [3] and 300 to 3000 nM in assay [4].

As to `Cc1noc(C)c1-c1cc(-c2ccccc2CN(C)C)c2nc[nH]c2c1` [Example Compound 28, 1-(2-(6-(3,5-dimethyl-isoxazol-4-yl)-1H-benzo[d]imidazol-4-yl)phenyl)-N,N-dimethyl methanamine], the IC50 in assay [1], in assay [2], in assay [3] and in assay [4] was 300 to 3000 nM in each case.

Regarding `Cc1noc(C)c1-c1cc(Nc2cccc(F)c2)c2nc[nH]c2c1` [Example Compound 32, 6-(3,5-dimethyl-isoxazol-4-yl)-N-(3-fluorophenyl)-1H-benzo[d] imidazol-4-amine], the IC50 is 300 to 3000 nM in assay [1], 300 to 3000 nM in assay [2], not above 300 nM in assay [3] and 300 to 3000 nM in assay [4].

With `COc1cccc(Nc2cc(-c3c(C)noc3C)cc3[nH]cnc23)c1` [Example Compound 33, 6-(3,5-dimethyl-isoxazol-4-yl)-N-(3-methoxy-phenyl)-1H-benzo[d] imidazol-4-amine], the IC50 in assay [1] is 300 to 3000 nM; in assay [2] it was 300 to 3000 nM; in assay [3], not above 300 nM; in assay [4] it was 300 to 3000 nM.

In the case of `Cc1noc(C)c1-c1cc(-c2c(C)noc2C)c2nc(C(F)(F)F)[nH]c2c1` [Example Compound 34, 4,4′-(2-(trifluoromethyl)-1H-benzo[d]imidazole-4,6-diyl)bis(3,5-dimethylixaole)], the IC50 is 300 to 3000 nM in assay [1], 300 to 3000 nM in assay [2], not above 300 nM in assay [3] and 300 to 3000 nM in assay [4].

`Cc1noc(C)c1-c1cc(NCc2cccnc2)c2nc[nH]c2c1` [Example Compound 35, 6-(3,5-dimethyl-isoxazol-4-yl)-N-(pyridin-3-ylmethyl)-1H-benzo[d] imidazol-4-amine]: the IC50 in assay [1] is 300 to 3000 nM; in assay [2], 300 to 3000 nM; in assay [3], not above 300 nM; in assay [4] it was 300 to 3000 nM.

On to `Cc1noc(C)c1-c1cc(-c2cccc(C(N)=O)c2)c2nc[nH]c2c1` [Example Compound 36, 3-(6-(3,5-dimethyl-isoxazol-4-yl)-1H-benzo[d]imidazol-4-yl)benzamide], for which the IC50 in assay [1] was 300 to 3000 nM; in assay [2] it was 300 to 3000 nM; in assay [3], not above 300 nM; in assay [4], 300 to 3000 nM.

As for `Cc1noc(C)c1-c1cc(NCc2ccc(F)cc2)c2nc[nH]c2c1` [Example Compound 38, 6-(3,5-dimethyl-isoxazol-4-yl)-N-(4-fluorobenzyl)-1H-benzo[d] imidazol-4-amine], the IC50 was 300 to 3000 nM in assay [1], 300 to 3000 nM in assay [2], not above 300 nM in assay [3] and 300 to 3000 nM in assay [4].

On to `Cc1conc1Nc1cc(-c2c(C)noc2C)cc2[nH]cnc12` [Example Compound 44, N-(6-(3,5-dimethyl-isoxazol-4-yl)-1H-benzo[d]imidazol-4-yl)-4-methyl-isoxazol-3-amine], for which the IC50 in assay [1], in assay [2], in assay [3] and in assay [4] was 300 to 3000 nM in each case.

`COc1ccc(C)cc1-c1cc(-c2c(C)noc2C)cc2[nH]cnc12` [Example Compound 51, 4-(4-(2-methoxy-5-methyl-phenyl)-1H-benzo[d]midazol-6-yl)-3,5-dimethyl isoxazole]: the IC50 in assay [1] was 300 to 3000 nM; in assay [2] it was 300 to 3000 nM; in assay [3], not above 300 nM; in assay [4] it was 300 to 3000 nM.

As for `Cc1nc2c(-c3csnc3C)cc(-c3c(C)noc3C)cc2[nH]1` [Example Compound 52, 3,5-dimethyl-4-(2-methyl-7-(3-methyliso-thiazol-4-yl)-1H-benzo[d]imidazol-5-yl)isoxazole], the IC50 in assay [1] was 300 to 3000 nM; in assay [2] it was 300 to 3000 nM; in assay [3], not above 300 nM; in assay [4] it was 300 to 3000 nM.

As for `Cc1nc2c(-c3cnccc3C)cc(-c3c(C)noc3C)cc2[nH]1` [Example Compound 53, 3,5-dimethyl-4-(2-methyl-4-(4-methyl-pyridin-3-yl)-1H-benzo[d]imidazol-6-yl)isoxazole], the IC50 was not above 300 nM in assay [1], 300 to 3000 nM in assay [2], not above 300 nM in assay [3] and 300 to 3000 nM in assay [4].

For the compound `Cc1noc(C)c1-c1cc(-c2c(C)noc2C)c2c(cnn2C)c1` [Example Compound 54, 4,4′-(1-methyl-1H-indazole-5,7-diyl)bis(3,5-dimethylisoxazole)], the IC50 in assay [1] is 300 to 3000 nM; in assay [2], not above 300 nM; in assay [3], not above 300 nM; in assay [4] it was 300 to 3000 nM.

Consider `Cc1noc(C)c1-c1cc(-c2c(C)noc2C)c2nn(C)cc2c1` [Example Compound 55, 4,4′-(2-methyl-2H-indazole-5,7-diyl)bis(3,5-dimethylisoxazole)], for which the IC50 was 300 to 3000 nM in assay [1], 300 to 3000 nM in assay [2], not above 300 nM in assay [3] and 300 to 3000 nM in assay [4].
